Columns and labels:
SlitOR14 = system: SlitOR14; design: method as in de Fouchier et al. 2017; settings: ref de Fouchier et al. 2017; cited from earlier work
HarmOR repertoire = assay: Responses of the 28 functional HarmORs across odorant doses (PCA of oocyte currents); format: cell-based, Helicoverpa armigera; settings: odorant 10^−7 M
Description: Vectors quantifying the responses of the 28 ORs to each odorant were projected onto a 3D landscape. This 3D representation captured 78.34% (10^−4 M), 65.11% (10^−5 M), 68.89% (10^−6 M), and 84.52% (10^−7 M) of the variation in the original 28D data set across different odorant concentrations. […] In addition, the capacity of the H. armigera odor space was highly dependent on odorant concentration. As the concentrations of odorants decreased, their positions in the odor space converged, with the ability to discriminate different odorants diminishing.
Functional characterization of individual ORs was performed by heterologous expression in Xenopus oocytes combined with a two-electrode voltage-clamp system ([Wang et al. 2010]). Briefly, the full-length gene of each OR and Orco were subcloned into the eukaryotic expression vector pT7TS. cRNAs were generated from linearized expression vectors using the mMESSAGE mMACHINE T7 kit (Ambion, Austin, TX). Then, the cRNA mixture of ORx and Orco (27.6 ng each) was injected (Nanoliter 2010, WPI Inc., Sarasota, FL) into oocytes (stage V–VII). The respective Orcos of different species were used for functional studies of OR42 orthologs except for the four butterfly species (V. tameamea, P. xuthus, D. plexippus, and P. rapae), in which we used the Orco from P. xuthus. After incubation in nutrient solution at 18 °C for 3–5 days, the response profile of each oocyte to multiple plant odorants was recorded via a two-electrode voltage clamp (OC-725C oocyte clamp, Warner Instruments, Hamden, CT) at a holding potential of −80 mV. Data were acquired by using a Digidata 1440 A and were analyzed by pCLAMP 10.2 software (Axon Instruments Inc., Union City, CA).
Stock solutions of each odorant were prepared at 1 M using DMSO as a solvent, and each odorant was diluted in 1× Ringer’s solution to the indicated concentrations for electrophysiological recording. For functional screening of each HarmOR, a panel of 67 odorants belonging to three types of chemical classes: terpenes, aromatics, and aliphatics (short-chain fatty acid) were used (supplementary table S1, Supplementary Material online). For functional studies of OR42 orthologs from different species, six odorants including PAA, benzaldehyde, (E)-2-hexen-1-al, cinnamaldehyde, 2-phenylethanol, and heptanal were used.
Graphs and data statistics of OR response spectra, dose responses, EAG, and behavioral experiments were generated by Prism 7 (GraphPad Software, La Jolla, CA). A heat map was generated in Excel 2010 (Microsoft Corporation, WA). […] For tuning breadth analysis, the kurtosis values (K) were calculated by SPSS 22 (SPSS Inc., Chicago, IL) and were used to define the tuning spectra width, where smaller K values represent broader tuning spectra (fig. 1B). […]

[1] = system: H. armigera third instar larvae; assay: Petri dish choice assay, third instar larvae; format: in vivo, Helicoverpa armigera
Protocol: Our results provide strong evidence that PAA, via its detection by HarmOR42, is an important host plant cue in both larval and adult stages of H. armigera.
For assessing larval behavior to PAA, the experiments were performed in closed plastic Petri dishes of 15 cm diameter (fig. 6D) as in [Poivet et al. (2013)] with some modifications. To ascertain the choice zone, we tracked the behavior trajectory of larvae to a regular diet. A piece of regular diet nutrition was placed at one of the opposite ends of the dish along the diameter. Ten third instar larvae were placed in the middle of the dish. The location of larvae was marked every 10 min for 1 h. Four replications were performed. Most of the larvae made choices within 40 min, so this time point was selected for choice statistics. For the choice behavior test, PAA and paraffin oil (solvent) were respectively added onto a piece of 1 × 1 cm filter paper and the papers were arranged at opposite ends. The two-choice zones were delineated by 4-cm radius half circles centered at each of the filter papers. The choice indexes (CI) were calculated using the formula: CI = (P − C)/T, where P represents the number of larvae that entered the PAA choice zone, C represents the number of larvae that entered the solvent zone, and T represents the total number of larvae in the test (ten larvae). We first determined the efficient test dose using three different dilutions of PAA (0.1, 1, and 10 μg) against wild-type larvae. The CI of larvae to PAA was compared with a blank (solvent on each side of the dish). […] Therefore, we used 1 μg of PAA to test the choice behavior of mutant larvae. Ten replicates were performed for each test.

[2] = system: H. armigera moth antennae; assay: Electroantennography (EAG), wild-type vs HarmOR42 knock-out moths; format: in vivo, Helicoverpa armigera; settings: single odorants, 1 μg
Description: We next conducted a loss-of-function study by generating a HarmOR42-lacking H. armigera strain by CRISPR/Cas9 targeting the first coding exon. Homozygous mutants were obtained with a large segment deletion of 203 bp and a 6-bp nonhomologous insertion in the genome (fig. 6B), introducing a premature stop codon in the coding sequence. […] The most likely hypothesis is that HarmOR42 is not the major receptor for sensing this compound in H. armigera. As a control, we tested the response of male moths to the sex pheromone component Z11-16: Ald that is not a ligand of HarmOR42. As expected, we observed no difference between the EAG responses of mutant and wild-type moths to this compound.
The antennae of 2- to 3-day-old virgin male and female moths were cut at the base of the flagellum. After removing the tip, one antenna was inserted between two glass electrodes filled with 0.1 M KCl solution. In each test, a 10-μl solution of each odorant was added onto a piece of filter paper (0.5 cm × 0.5 cm) and then inserted into a Pasteur pipette. About 100 ng/μl stock solutions of individual odorants and different doses of the mixture IAC were prepared with paraffin oil. A continuous airflow of 30 ml/s was produced by a stimulus controller (CS-55, Syntech, Kirchzarten, Germany). Odor stimulation was controlled by a puff of purified air (0.2 s at 10 ml/s airflow) from the CS-55. EAG signals were amplified with a 10× AC/DC headstage preamplifier (Syntech) and further acquired with an Intelligent Data Acquisition Controller (IDAC-4-USB, Syntech) ([Cao et al. 2016]). The signals were recorded, monitored, and analyzed using Syntech EAG-software (Syntech, Germany). The EAG response values for each compound were calculated by subtracting the value of the same antennae corresponding to a solvent blank of paraffin oil.

SMILES: O=CCc1ccccc1 [Phenylacetaldehyde]
- response of SlitOR14 (SlitOR14): high specificity and sensitivity
- response of the HarmOR repertoire (HarmOR repertoire): still responded
- preference of HarmOR42 knock-out mutant larvae ([1]; third instar, knock-out, 1 μg): lost their preference
- attractive effect on wild-type larvae ([1]; third instar, wild type, 1 μg, 40 min): significantly attracted
- dose giving the most positive choice ([1]; wild-type larvae, 0.1, 1 and 10 μg tested): 1 µg
- EAG response of HarmOR42 knock-out mutants compared with wild-type moths [2]: significantly decreased

— publication PMC8042770, “Odorant Receptors for Detecting Flowering Plant Cues Are Functionally Conserved across Moths and Butterflies” (Molecular Biology and Evolution, 2020)
